The values below come from ChEMBL document CHEMBL1145234, “A new synthetic analogue of thymidine, 7-(3-bromo-phenoxy)-thymidine, inhibits the proliferation of tumor cells” (Bioorg Med Chem Lett, 2005).

The pIC50 is −log10 of the IC50, conventionally taken in molar units.

The subject of experiment [1] is HeLa. Kind of experiment: Inhibitory concentration against HeLa cell proliferation after 72 hours of incubation. In kind it is functional, cell-based. To be noted: Homo sapiens.
For experiment [2], the system named is HeLa. In words: Inhibitory concentration against HeLa cell proliferation after 72 hours of incubation; NA means not active. In kind it is functional, cell-based, Homo sapiens.

Structures are written as SMILES. pIC50: −log10 of the molar value.

`O=c1[nH]c(=O)n([C@H]2C[C@H](O)[C@@H](CO)O2)cc1COc1ccc(Br)cc1`: the pIC50 with HeLa [1] is 4.60.
Same read-out and setting: the value for `CCOc1ccc(OCc2cn([C@H]3C[C@H](O)[C@@H](CO)O3)c(=O)[nH]c2=O)cc1` was 3.60.
As to `O=c1[nH]c(=O)n([C@H]2C[C@H](O)[C@@H](CO)O2)cc1COc1ccccc1`, in the experiment on HeLa [1], the pIC50 was 3.70.
Turning to `O=c1[nH]c(=O)n([C@H]2C[C@H](O)[C@@H](CO)O2)cc1COc1ccc([N+](=O)[O-])cc1`, the pIC50 in the experiment with HeLa [1] was 3.60.
Consider `O=c1[nH]c(=O)n([C@H]2C[C@H](O)[C@@H](CO)O2)cc1COc1cccc2ccccc12`, for which the pIC50 in the experiment on HeLa [1] was 4.30.
`O=c1[nH]c(=O)n([C@H]2C[C@H](O)[C@@H](CO)O2)cc1CSc1cccc2ccccc12` showed a negative-log IC50 (pIC50) in the experiment on HeLa [1] of 3.30.
Turning to `COc1ccc(OCc2cn([C@H]3C[C@H](O)[C@@H](CO)O3)c(=O)[nH]c2=O)cc1`, the pIC50 in the experiment with HeLa [1] was 3.70.
`Cc1ccc(OCc2cn([C@H]3C[C@H](O)[C@@H](CO)O3)c(=O)[nH]c2=O)cc1` had a pIC50 in the experiment on HeLa [1] of 3.60.
Same read-out and setting: the value for `O=c1[nH]c(=O)n([C@H]2C[C@H](O)[C@@H](CO)O2)cc1COc1ccc2ccccc2c1` was 4.30.
In the experiment on HeLa [1], `O=c1[nH]c(=O)n([C@H]2C[C@H](O)[C@@H](CO)O2)cc1COc1cccc(Br)c1` gave a pIC50 of 4.82.
Regarding `O=c1ccn([C@H]2C[C@H](O)[C@@H](CO)O2)c(=O)[nH]1` [DEOXYURIDINE], in the experiment on HeLa [2], the IC50 entry is “Not Active”.
Consider `Cc1cn([C@H]2C[C@H](O)[C@@H](CO)O2)c(=O)[nH]c1=O` [DOXRIBTIMINE], for which, in the experiment on HeLa [1], the pIC50 is 2.40.
